Results as given in patent publication US9586994B2, “CD44V6-derived peptides for treating breast cancer” (KARLSRUHER INSTITUT FÜR TECHNOLOGIE, priority 2012, dated 2017).

Assays:
CD44v6 [1] = target: T1, CD44v6 (Homo sapiens, UniProt P16070); assay: Peptide blocking of EGF/TGFα-induced Erk phosphorylation in MCF7 cells (Western blot); type: cell-based; conditions: peptide 100 ng/ml; for EGF-induced activation of the ErbB receptors (Erk phosphorylation): MCF7, serum-starved, EGF 20 ng/ml
T1 construct: endogenous in cells; host or cells: MCF7; MCF10A
Method: (§1) 3×10^5 were seeded per well of a 6-well plate and serum-starved for 24 hours. Afterwards the medium inside of each well was reduced to 1 ml and the respective peptide (v6 (both peptides of SEQ ID No.: 2 and 6 were tested), or ctrl peptide) was added at a concentration of 100 ng/ml. The cells then were incubated together with the peptide at 37° C. for 5 mins. Ligand concentration for all peptide blocking experiments was 20 ng/ml.
(§2) To assay protein expression via Western blot cells were washed 1× with PBS and afterwards lysed in 2×Laemmli sample buffer (160 mM Tris-HCl pH 6.8, 4% SDS, 16% glycerol, 0.1M DTT, 0.01% bromphenol blue). The sample was sheared through a 26 gauge needle. In succession the lysates were boiled for 5 mins at 99° C. in order to denature the proteins in the sample and then spun down at 10 000 rmp for 1 min Eventually the samples were loaded onto an SDS-PAGE gel.
To test whether CD44v6 acts as a co-receptor in MCF7 or MCF10A cells, a peptide blocking experiment using peptides of SEQ ID NO: 6 was conducted. The cells were serum-starved for 24 h and then pre-incubated with a v6 peptide or an unspecific control peptide. Then, the cells were induced with EGF or HGF as a control. As a read-out for ErbB-activation, the phosphorylation of the Erk-kinase was used.

CD44v6 [2] = assay: HGF-induced activation of Met and ERK in L3.6pl cells (Western blot); type: cell-based, human; conditions: peptide before induction with 10 ng/ml HGF
Method in brief: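 L3.6pl human pancreatic carcinoma cells serum-starved 24 h, pretreated 10 min at 37° C with CD44v6 or control peptide (100 ng/mL), then stimulated with HGF (10 ng/mL) 5 min. Phospho-Met and phospho-ERK detected by western blot with total Met/ERK reprobe; bands quantified densitometrically.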

CD44v6 [3] = assay: Peptide blocking of ErbB ligand- or HGF-induced Erk-kinase phosphorylation in HT29 cells (Western blot); type: cell-based, human; conditions: peptide 100 ng/ml; for EGF-dependent Erk-phosphorylation: EGF 20 ng/ml
Method: as §1
The cells were incubated with the growth factors specified in the particular experiment. Except for the peptide blocking and migration assays, ligand concentration was 5 ng/ml at all times. Prior to induction the cells were treated as indicated in the results section.
as §2
In order to test whether CD44v6 plays a role in the activation of the ErbB family of receptors, a peptide blocking experiment using the 14mers of SEQ ID No. 6 was performed in HT29 cells. The fact that this cell line expresses all ErbB receptors (Wu et al, 2009, see references) and several CD44 variants including also exon v3 and v6 (Orian-Rousseau et al., 2002, see references) makes it a suitable tool to evaluate the co-receptor function of CD44 proteins for the ErbB family. The first ErbB1-ligand that was evaluated was EGF. […] The cells were serum starved for 24 hours and induced with EGF. Phosphorylation of the Erk-Kinase, a downstream target of the ErbB receptor family, was used as a read-out for ErbB receptor activation. HGF was used as a control to test the blocking efficiency of the CD44v6 peptide since the induction of the Erk kinase through Met is dependent on CD44v6 (Orian-Rousseau et al., 2002, see references).
Besides EGF, five other ligands, namely AR, BC, ER, HB-EGF, and TGFα, can activate the ErbB1 receptor. EGF, AR and TGFα bind to either an ErbB1-homo- or an ErbB1/2-heterodimer. In addition to these dimers, BC, ER and HB-EGF can also bind to an Erb4/4 homo- or an ErbB2/4 heterodimer. It was investigated whether the activation of the ErbB receptors by the indicated ligands is also dependent on CD44v6. HT29 cells were serum-starved for 24 hours and pre-treated with the v6-specific or a control peptide. They were then induced with the indicated ErbB ligands. Erk-kinase phosphorylation was used as a read-out for receptor activation.
For this purpose HT29 cells were serum-starved for 24 hours and pre-treated with the v6-specific or a control peptide. They were then induced with the indicated ErbB ligands. Erk-kinase phosphorylation was used as a read-out for receptor activation. All ligands could activate the Erk-kinase. […] These ligands are independent of CD44v6 for their induction of the ErbB receptors. This is especially striking, since EGF and TGF-α address the same receptor pairs (ErbB1/1 or ErbB1/2).

T1 sequence (P16070 21-742): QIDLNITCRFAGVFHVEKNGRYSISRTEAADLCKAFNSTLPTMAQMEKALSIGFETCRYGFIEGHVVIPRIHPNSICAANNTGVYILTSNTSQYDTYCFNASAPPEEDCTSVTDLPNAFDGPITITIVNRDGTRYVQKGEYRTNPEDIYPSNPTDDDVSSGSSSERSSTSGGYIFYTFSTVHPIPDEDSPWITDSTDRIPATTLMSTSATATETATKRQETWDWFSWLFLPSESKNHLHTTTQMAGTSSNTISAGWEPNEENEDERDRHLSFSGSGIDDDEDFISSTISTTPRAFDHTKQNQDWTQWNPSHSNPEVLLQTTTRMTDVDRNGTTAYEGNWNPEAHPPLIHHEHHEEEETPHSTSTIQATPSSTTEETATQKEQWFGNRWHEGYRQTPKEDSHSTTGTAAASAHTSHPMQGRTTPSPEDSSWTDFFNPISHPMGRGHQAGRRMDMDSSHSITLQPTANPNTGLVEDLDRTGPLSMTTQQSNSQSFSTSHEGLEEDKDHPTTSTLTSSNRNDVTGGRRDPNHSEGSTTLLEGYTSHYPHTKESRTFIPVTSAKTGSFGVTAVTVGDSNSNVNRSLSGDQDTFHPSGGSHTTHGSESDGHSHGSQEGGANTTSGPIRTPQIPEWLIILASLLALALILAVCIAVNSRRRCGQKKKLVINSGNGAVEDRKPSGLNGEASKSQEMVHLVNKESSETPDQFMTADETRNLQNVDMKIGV

- EGF-induced activation of the ErbB receptors (Erk phosphorylation) (CD44v6 [1]): blocking of Erk phosphorylation
- EGF-induced activation of the ErbB receptors (Erk phosphorylation) (CD44v6 [1]; listed as CD44v6-specific peptide): could be blocked
- Erk phosphorylation upon TGFα induction (CD44v6 [1]; MCF7, TGFα 20 ng/ml): not upon TGFα induction
Sequence: KEQWFGNRWHEGYR [SEQ ID NO: 6, human CD44v6 14mer peptide]
- HGF-induced phosphorylation/activation of ERK (CD44v6 [2]): inhibited
- HGF-induced phosphorylation/activation of Met (CD44v6 [2]): inhibited
- HGF-induced phosphorylation/activation of ERK (CD44v6 [2]; listed as CD44v6 peptide): able to prevent activation
- HGF-induced phosphorylation/activation of Met (CD44v6 [2]; listed as CD44v6 peptide): able to prevent activation
- EGF-dependent Erk-phosphorylation (CD44v6 [3]; HT29, serum-starved, 5 min pre-incubation, listed as CD44v6 peptide): could be inhibited
- EGF-dependent Erk-phosphorylation (CD44v6 [3]; HT29, serum-starved, 5 min pre-incubation, listed as human v6 14mer): inhibited
- HGF-dependent Erk-phosphorylation (CD44v6 [3]; HT29, serum-starved, 5 min pre-incubation, HGF as control ligand): could be inhibited
- AR-induced activation of the ErbB receptors (Erk phosphorylation) (CD44v6 [3]; HT29, AR 20 ng/ml): could not be inhibited
- BC-induced activation of the ErbB receptors (Erk phosphorylation) (CD44v6 [3]; HT29, BC 20 ng/ml): could not be inhibited
- ER-dependent Erk-phosphorylation (CD44v6 [3]; HT29, ER 20 ng/ml): inhibited
- HB-EGF-induced activation of the ErbB receptors (Erk phosphorylation) (CD44v6 [3]; HT29, HB-EGF 20 ng/ml): could not be inhibited
- TGFα-induced activation of the ErbB receptors (Erk phosphorylation) (CD44v6 [3]; HT29, TGFα 20 ng/ml): could not be inhibited
